Like-named read-outs stand apart in the source and are kept apart here. Starred links: 1 amine or outer side, 2 acyl side, 3 side chain; linkers in the order of their positions; H or OH if unused. Positions of bridges follow the written chain, without caps; N, C: chain ends. Non-standard residues stand in square brackets, D forms with d. Residues, ends and D or L forms follow the SMILES beside them. Groups on a side chain read outwards from the residue. *: point of attachment. C20 diacid = O=C(O)CCCCCCCCCCCCCCCCCCC(=O)*; Trp(1-Me) = Cn1cc(C[C@H](N)C(=O)O)c2ccccc21; Abu(4-yl) = O=C([C@H](CC[*:3])N[*:1])[*:2]; C18 diacid = O=C(O)CCCCCCCCCCCCCCCCC(=O)*; γGlu = O=C(O)[C@H](CCC(=O)[*:2])N[*:1]; NMeI = CC[C@H](C)[C@H](NC)C(=O)O; AEEA = NCCOCCOCC(=O)O; Sar = CNCC(=O)O
Legend:
Human C3 = target: T1, Human C3 (Homo sapiens, UniProt P01024); assay: Affinity measurement by surface plasmon resonance (SPR) with immobilized C3; format: binding; conditions: Table 7; immobilized C3, 25° C., pH 7.4
T1 construct: purchased Complement tech A1 13c (so in the source)
Method: Surface plasmon resonance (SPR) was used to characterize peptides with respect to their binding affinity (Kd) for C3. Human C3 (Complement tech cat #A1 13c) was immobilised on individual flow cells of CM5 sensor chips (GE Healthcare) using standard amine coupling to a density of approximately 3000 resonance units (RU) in a buffer consisting of 10 mM phosphate pH 7.4, 150 mM NaCl, 0.05% Tween20. For interaction experiments a multi-cycle experiment approach was used and performed using either a Biacore™ T200 or Biacore™ X100 instrument (GE Healthcare) at 25° C. Peptides were injected in increasing concentration series (5-8 different concentrations) for 60-120 s at a flow rate of 30 μL/min in a buffer consisting of 10 mM Tris buffer at pH 7.4, with 150 mM NaCl and 0.05% Tween20. This was followed by a dissociation period for up to 10 min. […] Sensorgrams were double-referenced (reference surface, blanks) prior to analysis of the kinetic profiles by globally fitting data to a 1:1 Langmuir binding model to obtain association and dissociation rates for calculation of the equilibrium dissociation constant Kd. Each peptide was tested at in at least 2 independent experiments.

[1] = system: classical complement pathway; assay: In vitro haemolysis assay (inhibition of classical complement pathway); format: cell-based, human
In short: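 Serially diluted compound (9 points) was preincubated 15 min at room temperature with diluted human serum, titrated per batch to give 70-90% maximal haemolysis, in Tris/casein buffer pH 7.4 with Mg2+/Ca2+. Antibody-sensitized sheep erythrocytes were then added for 30 min at 37° C, and the reaction was stopped with EDTA. Haemolysis was read at A405, with IC50 from 4PL fit.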

[2] = Table 3, human serum, sensitized sheep red blood cells, read-out: IC50[nM], in vitro analysis of inhibition of hemolysis
[3] = Table 4, valine 3 versus isoleucine 3 pairs, read-out: CP hemolysis IC50

| Kd (Human C3) [µM] | Compound | IC50 [1, 2] [nM] | IC50 [1, 3] [nM] | IC50 ([1]; Table 5, different residues at position 3 of Ac-IC(1)XWQDWGEHRC(1)T-NH2, read-out: IC50, CP hemolysis) [nM] |
| --- | --- | --- | --- | --- |
| 0.016 | CC[C@H](C)[C@H](NC(C)=O)C(=O)N[C@H]1CSSC[C@@H](C(=O)N[C@H](C(N)=O)[C@@H](C)O)NC(=O)[C@H](CCCNC(=N)N)NC(=O)[C@H](Cc2c[nH]cn2)NC(=O)[C@H](CCC(=O)O)NC(=O)CNC(=O)[C@H](Cc2c[nH]c3ccccc23)NC(=O)[C@H](CC(=O)O)NC(=O)[C@H](CCC(N)=O)NC(=O)[C@H](Cc2c[nH]c3ccccc23)NC(=O)[C@H]([C@@H](C)CC)NC1=O [Compound 2] (Ac-ICIWQDWGEHRCT-NH2; disulfide 2-12) | < 100 | 94 | < 100 |
| 0.0015 | CC[C@H](C)[C@H](NC(C)=O)C(=O)N[C@H]1CSSC[C@@H](C(=O)N[C@H](C(N)=O)[C@@H](C)O)NC(=O)[C@H](CCCNC(=N)N)NC(=O)[C@H](Cc2c[nH]cn2)NC(=O)[C@H](CCC(=O)O)NC(=O)CNC(=O)[C@H](Cc2c[nH]c3ccccc23)NC(=O)[C@H](CC(=O)O)NC(=O)[C@H](CCC(N)=O)NC(=O)[C@H](Cc2cn(C)c3ccccc23)NC(=O)[C@H]([C@@H](C)CC)NC1=O [Compound 4] (Ac-ICI[Trp(1-Me)]QDWGEHRCT-NH2; disulfide 2-12) | < 100 | – | – |
| 0.016 | CC[C@H](C)[C@H](NC(C)=O)C(=O)N[C@H]1CSSC[C@@H](C(=O)N[C@@H](CO)C(N)=O)NC(=O)[C@H](CCCNC(=N)N)NC(=O)[C@H](Cc2c[nH]cn2)NC(=O)[C@H](CCC(=O)O)NC(=O)CNC(=O)[C@H](Cc2c[nH]c3ccccc23)NC(=O)[C@H](CC(=O)O)NC(=O)[C@H](CCC(N)=O)NC(=O)[C@H](Cc2c[nH]c3ccccc23)NC(=O)[C@H]([C@@H](C)CC)NC1=O [Compound 21] (Ac-ICIWQDWGEHRCS-NH2; disulfide 2-12) | < 100 | 77 | – |
| 0.00012 | CC[C@H](C)[C@H](NC(=O)[C@H](N)Cc1ccc(O)cc1)C(=O)N[C@H]1CSSC[C@@H](C(=O)N(C)[C@H](C(N)=O)[C@@H](C)CC)NC(=O)[C@H](CCCNC(=N)N)NC(=O)[C@H](Cc2c[nH]cn2)NC(=O)[C@H](C)NC(=O)CN(C)C(=O)[C@H](Cc2c[nH]c3ccccc23)NC(=O)[C@H](CC(=O)O)NC(=O)[C@H](CCC(N)=O)NC(=O)[C@H](Cc2cn(C)c3ccccc23)NC(=O)[C@H]([C@@H](C)CC)NC1=O [Compound 48, H-{d}Y1C(1)I[1-Me-Trp]QDW[Sar]AHRC(1)[N-Me-Ile]-NH2] (H-[dY]ICI[Trp(1-Me)]QDW[Sar]AHRC[NMeI]-NH2; disulfide 3-13) | < 100 | – | – |
| 0.0015 | CC[C@H](C)[C@@H]1NC(=O)[C@@H](NC(=O)[C@H](Cc2ccccc2)NC(=O)[C@H](CCC(=O)O)NC(=O)[C@H](CO)NC(C)=O)CSSC[C@@H](C(=O)N(C)CC(=O)N[C@@H](CCC(=O)O)C(=O)N[C@@H](C)C(N)=O)NC(=O)[C@H](CCCNC(=N)N)NC(=O)[C@H](Cc2c[nH]cn2)NC(=O)[C@H](CCC(=O)O)NC(=O)CNC(=O)[C@H](Cc2c[nH]c3ccccc23)NC(=O)[C@H](CC(=O)O)NC(=O)[C@H](CCC(N)=O)NC(=O)[C@H](Cc2cn(C)c3ccccc23)NC1=O [Compound 75] (Ac-SEFCI[Trp(1-Me)]QDWGEHRC[Sar]EA-NH2; disulfide 4-14) | < 100 | – | – |
| 0.0054 | CC[C@H](C)[C@@H]1NC(=O)[C@@H](NC(=O)CN(C)C(=O)[C@H](CCC(=O)O)NC(=O)[C@H](CO)NC(C)=O)CSSC[C@@H](C(=O)N[C@H](C(=O)N[C@@H](CCC(=O)O)C(=O)N[C@@H](C)C(N)=O)[C@@H](C)O)NC(=O)[C@H](CCCNC(=N)N)NC(=O)[C@H](Cc2c[nH]cn2)NC(=O)[C@H](CCC(=O)O)NC(=O)CNC(=O)[C@H](Cc2c[nH]c3ccccc23)NC(=O)[C@H](CC(=O)O)NC(=O)[C@H](CCC(N)=O)NC(=O)[C@H](Cc2cn(C)c3ccccc23)NC1=O [Compound 82] (Ac-SE[Sar]CI[Trp(1-Me)]QDWGEHRCTEA-NH2; disulfide 4-14) | < 100 | – | – |
| 0.028 | CC[C@H](C)[C@@H]1NC(=O)[C@@H](NC(=O)[C@H](Cc2ccccc2)NC(=O)[C@H](CCC(=O)O)NC(=O)[C@H](CO)NC(C)=O)CSSC[C@@H](C(=O)N(C)CC(=O)N[C@@H](CCC(=O)O)C(=O)NCC(=O)N[C@@H](C)C(=O)N[C@@H](CCCCNC(=O)COCCOCCNC(=O)CC[C@H](NC(=O)COCCOCCNC(=O)CNC(=O)CC[C@H](NC(=O)CCCCCCCCCCCCCCCCC(=O)O)C(=O)O)C(=O)O)C(N)=O)NC(=O)[C@H](CCCNC(=N)N)NC(=O)[C@H](Cc2c[nH]cn2)NC(=O)[C@H](CCC(=O)O)NC(=O)CNC(=O)[C@H](Cc2c[nH]c3ccccc23)NC(=O)[C@H](CCC(=O)O)NC(=O)[C@H](CCC(N)=O)NC(=O)[C@H](Cc2cn(C)c3ccccc23)NC1=O [Compound 120] (Ac-SEFCI[Trp(1-Me)]QEWGEHRC[Sar]EGAK([AEEA-γGlu-AEEA-Gly-γGlu-C18 diacid])-NH2; disulfide 4-14) | < 250 | – | – |
| 0.03 | CC[C@H](C)[C@@H]1NC(=O)[C@@H](NC(=O)[C@H](Cc2ccc(O)cc2)NC(=O)[C@H](CCC(=O)O)NC(=O)[C@H](CO)NC(C)=O)CSSC[C@@H](C(=O)N(C)CC(=O)N[C@@H](CCC(=O)O)C(=O)N[C@@H](CCCCN)C(=O)N[C@@H](CCC(=O)N[C@@H](C)C(=O)N[C@@H](CCCCNC(=O)COCCOCCNC(=O)CC[C@H](NC(=O)COCCOCCNC(=O)CNC(=O)CC[C@H](NC(=O)CCCCCCCCCCCCCCCCC(=O)O)C(=O)O)C(=O)O)C(N)=O)C(=O)O)NC(=O)[C@H](CCCNC(=N)N)NC(=O)[C@H](Cc2c[nH]cn2)NC(=O)[C@H](CCC(=O)O)NC(=O)CN(C)C(=O)[C@H](Cc2c[nH]c3ccccc23)NC(=O)[C@H](CCC(=O)O)NC(=O)[C@H](CCC(N)=O)NC(=O)[C@H](Cc2cn(C)c3ccccc23)NC1=O [Compound 121, Ac-SEYC(1)I[1-Me-Trp]QEW[Sar]EHRC(1)[Sar]K[γGlu]A-K([17-carboxy-heptadecanoyl][γGlu]G[Peg3][γGlu][Peg3])-NH2] (Ac-SEYCI[Trp(1-Me)]QEW[Sar]EHRC[Sar]EK[γGlu]AK([AEEA-γGlu-AEEA-Gly-γGlu-C18 diacid])-NH2; disulfide 4-14) | < 250 | – | – |
| 0.0065 | CC[C@H](C)[C@@H]1NC(=O)[C@@H](NC(=O)[C@H](Cc2ccccc2)NC(=O)[C@H](CCC(=O)O)NC(=O)[C@H](CO)NC(C)=O)CSSC[C@@H](C(=O)N(C)CC(=O)N[C@@H](CCC(=O)O)C(=O)NCC(=O)N[C@@H](CCC(=O)O)C(=O)NCCOCCOCC(=O)NCCOCCOCC(=O)N[C@@H](CCCCNC(=O)CC[C@H](NC(=O)CNC(=O)CC[C@H](NC(=O)CCCCCCCCCCCCCCCCCCC(=O)O)C(=O)O)C(=O)O)C(N)=O)NC(=O)[C@H](CCCNC(=N)N)NC(=O)[C@H](Cc2c[nH]cn2)NC(=O)[C@H](CCC(=O)O)NC(=O)CNC(=O)[C@H](Cc2c[nH]c3ccccc23)NC(=O)[C@H](CC(=O)O)NC(=O)[C@H](CCC(N)=O)NC(=O)[C@H](Cc2cn(C)c3ccccc23)NC1=O [Compound 128] (Ac-SEFCI[Trp(1-Me)]QDWGEHRC[Sar]EGE[AEEA][AEEA]K([γGlu-Gly-γGlu-C20 diacid])-NH2; disulfide 4-14) | < 100 | – | – |
| 0.0015 | CC[C@H](C)[C@@H]1NC(=O)[C@@H](NC(=O)[C@H](Cc2ccccc2)NC(=O)[C@H](CCC(=O)O)NC(=O)[C@H](CO)NC(C)=O)CSSC[C@@H](C(=O)N(C)CC(=O)N[C@@H](CCC(=O)O)C(=O)NCCOCCOCC(=O)NCCOCCOCC(=O)N[C@@H](CCCCNC(=O)CC[C@H](NC(=O)CNC(=O)CC[C@H](NC(=O)CCCCCCCCCCCCCCCCC(=O)O)C(=O)O)C(=O)O)C(N)=O)NC(=O)[C@H](CCCNC(=N)N)NC(=O)[C@H](Cc2c[nH]cn2)NC(=O)[C@H](CCC(=O)O)NC(=O)CN(C)C(=O)[C@H](Cc2c[nH]c3ccccc23)NC(=O)[C@H](CC(=O)O)NC(=O)[C@H](CCC(N)=O)NC(=O)[C@H](Cc2cn(C)c3ccccc23)NC1=O [Compound 144, Ac-SEFC(1)I[1-Me-Trp]QDW[Sar]EHRC(1)[Sar]E[Peg3][Peg3]-K([17-carboxy-heptadecanoyl][γGlu]G[γGlu])-NH2] (Ac-SEFCI[Trp(1-Me)]QDW[Sar]EHRC[Sar]E[AEEA][AEEA]K([γGlu-Gly-γGlu-C18 diacid])-NH2; disulfide 4-14) | < 100 | – | – |
| 0.0014 | CC[C@H](C)[C@@H]1NC(=O)[C@@H](NC(=O)[C@H](Cc2ccccc2)NC(=O)[C@H](CCC(=O)O)NC(=O)[C@H](CO)NC(C)=O)CSCC[C@@H](C(=O)N[C@H](C(=O)NCC(=O)N[C@@H](C)C(=O)N[C@@H](CCC(=O)O)C(=O)N[C@@H](CO)C(N)=O)[C@@H](C)O)NC(=O)[C@H](CCCNC(=N)N)NC(=O)[C@H](Cc2c[nH]cn2)NC(=O)[C@H](CCC(=O)O)NC(=O)CNC(=O)[C@H](Cc2c[nH]c3ccccc23)NC(=O)[C@H](CC(=O)O)NC(=O)[C@H](CCC(N)=O)NC(=O)[C@H](Cc2cn(C)c3ccccc23)NC1=O [Compound 151, Ac-SEFA(1)I[1-Me-Trp]QDWGEHRhC(1)TGAES-NH2] (Ac-SEFCI[Trp(1-Me)]QDWGEHR[Abu(4-yl)]TGAES-NH2; thioether 4-14) | < 100 | – | – |
